According to PMC5801568, “Liquid chromatography–tandem mass spectrometry for the simultaneous quantitation of ceftriaxone, metronidazole and hydroxymetronidazole in plasma from seriously ill, severely malnourished children” (Wellcome Open Research, 2018):

What was measured:
[1] = Auto-sampler (processed sample) stability; type: physicochemical, human; details: 24 h at 18°C, n=5
Description: (§1) Stability (ST%) studies were evaluated via sample and solution concentrations, where:
(§2) ST% is the stability of the chemical compound in the sample over the period of time. c 0 is the initial concentration, determined without introducing any extra pauses in the analysis process. c t is the concentration obtained after the storage period with time t.
Processed sample stability was assessed by letting the samples stay in the autosampler at 18°C for 24h and then they were analyzed the following day. This was done to ensure data integrity in case of equipment failure and initiation of a re-run.

[2] = design: method as in Wong et al. [17]; details: ref Wong et al. [17]; cited from earlier work
[3] = Freeze-thaw stability (3 cycles at -20°C); type: physicochemical, human; details: 3 freeze-thaw cycles at -20°C, n=5
Description: as §1, §2
Spiked plasma samples were subjected to three freeze-thaw cycles at -20°C and the analytes concentrations assessed after the third cycle. This was done also for plasma ultra-filtrate spiked with CEF to assess the stability of free ceftriaxone in calibrators and quality control samples.

[4] = Bench-top (short term) stability in matrix at room temperature; type: physicochemical, human; details: 8 h, n=5
Description: as §1, §2
Bench-top stability was evaluated by keeping plasma samples at low and high quality control levels at ambient temperatures (< 28°C) for at least 8h then processed and analyzed. Selected ambient temperature covered the temperature range for study samples, as ambient temperatures remained < 28°C.

[5] = Sub-stock solution stability at -20°C; type: physicochemical; details: solution in 20% methanol, 28 days at -20°C; nominal conc. MET 50, CEF 300, MET-OH 30 µg/mL
Description: Stock solutions of CEF (5 mg of the base/mL), MET and MET-OH (both 1 mg/mL) were prepared by dissolving an appropriate amount of each compound in 20% methanol. The stock solutions were further serially diluted with 20% methanol to make working standard solutions used to spike the blank plasma to produce 0.4, 12, 24, 48, 96,150,220, 300 µg/mL CEF and 1.2, 120, 240 µg/mL QCs; 0.05, 1.0, 2.0, 4.0, 8.0, 16.0, 32.0, 50 µg/mL MET and 0.15, 20, 40 µg/mL QCs; 0.02, 0.8, 1.6, 3.2, 6.4, 13, 20, 30 µg/mL MET-OH and 0.06, 12, 24 µg/mL QCs. Stock solution of CEFU (IS) was prepared by dissolving appropriate amount of the compound in acetonitrile, the stock solution was serially diluted with acetonitrile to make working standard solutions of 1.25 µg/mL and 1 µg/mL. All the stock solutions were stored at -20°C, protected from light (in amber sample vials) and used within three months.
Sub-stock solution stability was evaluated for CEF, MET and MET-OH, by comparing the response generated from the same solution at preparation and after being stored at -20°C for a period of 28 days. […] The stability was reported as coefficient of variation between the initial concentration and the concentration at day 28.

[6] = Plasma concentrations in hospitalized children with severe acute malnutrition (LC-MS/MS); type: in vivo; details: human, other: intravenous (CEF) and oral (MET), one study participant, oral MET 7.5 mg/Kg given 15 min before; for concentration at 5 min: 5 min after ceftriaxone IV (80 mg/kg); for concentration at 30 min: 30 min after ceftriaxone IV (80 mg/kg)
Description: Total drug. To a 50 µL aliquot of plasma (blank, standard, quality control, or patient sample) 200 µL of internal standard (CEFU; of a 1.25 µg/mL solution in acetonitrile) was added. The 1.5 mL polypropylene tubes were vortex-mixed for 3 minutes to precipitate the plasma proteins, followed by centrifugation (4000 x g; 10 min, 4°C). The supernatant (100 µL) was transferred into another clean 1.5 mL polypropylene tube and diluted with 400 µL of 20% methanol in water. The samples were vortex-mixed for 3 minutes and submitted for analysis by LC-MS/MS.
The validated method was successfully applied to a pharmacokinetic study of CEF, MET, MET-OH and unbound ceftriaxone in hospitalized children with complicated severe acute malnutrition (SAM) following an oral administration of MET and intravenous administration of CEF over the course of 72 hours.
81 hospitalized children with SAM and requiring IV antibiotics according to WHO and national guidelines were recruited (after obtaining ethical approval from the Kenya Medical Research Institute Scientific and Ethics Review Unit, approval number: KEMRI/SERU/CGMR-C023-3161 and informed consent from the parents/guardians) and treated with an oral dose of 7.5mg/Kg MET (Flagyl ®oral suspension, 200 mg/5 mL) three times daily and IV injection of 80 mg/kg CEF (Ceftriaxone Rocephin ®, 250 mg) once daily 15 min after metronidazole dose. Blood samples (3.0 mL) were collected into Li-heparinized tubes, a pre-dose sample was taken before administering the drugs. Further sampling at 5, 30, 60 min after ceftriaxone dose and 2, 4, and 8 h after metronidazole dose. The sampling plan was such that each patient had only three blood draws after the base-line sample. The blood was centrifuged (3000 rpm; 5 min), plasma separated and stored at -80°C until analysis time.

[7] = Long-term stability at -20°C; type: physicochemical, human; details: 90 days at -20°C, n=5
Description: as §1, §2
Long term stability of the analytes was studied over a period that covered the duration of storage of the study samples from collection to the last sample analysis, this ensured that the integrity of study samples was not compromised over the period of storage. To investigate long term stability, two sets of sample aliquots were prepared at concentrations corresponding to low and high quality control levels. The first set was processed and analyzed at day 1 and the second set after 90 days of storage at -20°C. The analyte concentrations in the plasma and ultra-filtrate samples at 90 days of storage was compared with those obtained on day 1 to determine the percentage stability.

[8] = design: method as in Silva et al. [12]; details: over a period of 48h; ref Silva et al. [12]; cited from earlier work
[9] = design: method as in Ilomuanya et al. [15]; details: at 72h; ref Ilomuanya et al. [15]; cited from earlier work
[10] = design: method as in Ilomuanya et al. [15]; details: after the fourth freeze/thaw cycle; ref Ilomuanya et al. [15]; cited from earlier work
[11] = processed plasma samples, high QC spiked conc. (MET 40, CEF 240, MET-OH 24 µg/mL)
[12] = processed plasma samples, low QC spiked conc. (MET 0.15, CEF 1.2, MET-OH 0.06 µg/mL)
[13] = plasma ultra-filtrate, spiked conc. 1.2 µg/mL
[14] = plasma ultra-filtrate, spiked conc. 240 µg/mL
[15] = plasma, high QC spiked conc. (MET 40, CEF 240, MET-OH 24 µg/mL)
[16] = plasma, low QC spiked conc. (MET 0.15, CEF 1.2, MET-OH 0.06 µg/mL)

SMILES | Auto-sampler stability ST % [1, 11] [%] | Auto-sampler stability ST % [1, 12] [%] | Freeze-thaw stability ST % [3, 15] [%] | Freeze-thaw stability ST % [3, 16] [%] | Benchtop stability in matrix ST % [4, 15] [%] | Benchtop stability in matrix ST % [4, 16] [%] | Sub-stock solution stability ST % [5] [%] | concentration at 5 min [6] [µg/mL] | concentration at 30 min [6] [µg/mL] | Long-term stability ST % [7, 15] [%] | Long-term stability ST % [7, 16] [%] | further results
CO/N=C(\C(=O)N[C@@H]1C(=O)N2C(C(=O)O)=C(CSc3nc(=O)c(=O)[nH]n3C)CS[C@H]12)c1csc(N)n1 [CEF, Ceftriaxone sodium] | 95.4 | 90.6 | 95.3 | 95.8 | 96.0 | 98.1 | 96.1 | 266 | 74.4 | 90.6 | 92.2 | Auto-sampler stability ST % ([1]; processed plasma ultra-filtrate, spiked conc. 1.2 µg/mL): 98.4%; Auto-sampler stability ST % ([1]; processed plasma ultra-filtrate, spiked conc. 240 µg/mL): 94.2%; Average protein binding [2]: 89.5%; Freeze-thaw stability ST % [3, 13]: 93.0%; Freeze-thaw stability ST % [3, 14]: 92.2%; Benchtop stability in matrix ST % [4, 13]: 99.8%; Benchtop stability in matrix ST % [4, 14]: 105.8%; Long-term stability ST % [7, 13]: 94.4%; Long-term stability ST % [7, 14]: 92.4%
Cc1ncc([N+](=O)[O-])n1CCO [MET, metronidazole] | 93.7 | 101.5 | 93.5 | 96.1 | 98.3 | 105.8 | 95.8 | 2.54 | 1.99 | 93.8 | 95.2 | Mean stability [8]: 93.6% - 100.6%; Autosampler stability [9]: 40.6%–58.7%; Concentration remaining after freeze/thaw [10]: < 90%
O=[N+]([O-])c1cnc(CO)n1CCO [MET-OH, 1-(2-hydroxyethyl)-2-hydroxymethyl-5-nitroimidazole] | 92.8 | 103.3 | 100.7 | 97.2 | 102.2 | 99.5 | 95.4 | 0.13 | 0.66 | 92.0 | 99.1 | 
